Experimental data from patent publication EP3928779A1 (Chugai Seiyaku Kabushiki Kaisha, priority 2014, dated 2016).

Columns and labels:
[1] = system: rat small-intestinal brush border membrane vesicles; test: Inhibitory effect on 33PO4 uptake into rat small-intestinal brush border membrane vesicles (rapid filtration method); format: biochemical; details: 33PO4 uptake into rat small-intestinal BBMVs; test compound 1 µM; reacted for 60 seconds
In short: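 Uptake of ^33PO4 was measured by rapid filtration and liquid scintillation counting of filter-retained vesicles, after quenching with ice-cold 110 mM NaCl/1 mM KH2PO4/10 mM HEPES pH 7.5. Vesicles were brush border membranes from the upper small intestine of female Wistar rats aged 4–5 weeks.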

[2] = system: adenine-induced renal failure rat; test: Suppressive effect on rise in serum phosphorus concentration of adenine-induced renal failure rat (0.1% in feed, 3 days); format: in vivo; details: feed or water, 72 h, adenine-induced renal failure Wistar male rat, test compound 0.1% of mass concentration in feed for 3 days, Fiske-Subbarow method, read-out: rate (%) of suppression of a rise in serum phosphorus concentration
From the text: Adenine was forcedly administered orally to each Wistar male rat (7-8 weeks old) to impair renal functions and thereby prepare a hyperphosphatemia model ([…], Nagano N, Burke SK, Fukushima N. Sevelamer hydrochloride prevents ectopic calcification and renal osteodystrophy in chronic renal failure rats. Kidney Int. 2003 Aug; 64 (2): 441-50). Each test compound was mixed at a ratio of 0.1% of mass concentration with feed. The animal was fed with a given amount of the feed for 3 days. A group given feed non-supplemented with a test compound was used as a reference pathological group, and an adenine-unadministered group given feed non-supplemented with a test compound was used as a normal group. 3 days after the start of administration of the test compound, blood was collected from the jugular vein, and serum was collected. Serum phosphorus concentrations were measured by the Fiske-Subbarow method. The rate of suppression of a rise in serum phosphorus concentration was determined according to the following expression: Rate (%) of suppression of a rise in serum phosphorus concentration = (1-[(Serum phosphorus concentration of the test compound-treated pathological group)-(Serum phosphorus concentration of the normal group)]/[(Serum phosphorus concentration of the reference pathological group)-(Serum phosphorus concentration of the normal group)]) × 100 [formula] As a result, each test compound was confirmed to have a suppressive effect on a rise in serum phosphorus concentration. […]

C[C@]12CCCN1N(Cc1ccc(C#CCCCC(=O)O)c(F)c1F)C(=O)C(C(=O)Nc1ccc(C(F)(F)F)cc1-c1cc(C(F)(F)F)ncn1)=C2O [Example 129, 6-[4-[[(4aR)-4-Hydroxy-4a-methyl-2-oxo-3-[[4-(trifluoromethyl)-2-[6-(trifluoromethyl)pyrimidin-4-yl]phenyl]carbamoyl]-6,7-dihydro-5H-pyrrolo[1,2-b]pyridazin-1-yl]methyl]-2,3-difluorophenyl]hex-5-ynoic acid]
Rate of uptake inhibition (%) (1 µM) [1]: 63% | inhibition in vivo at 0.1 % in feed [2]: 17%

C[C@]12CCCN1N(Cc1ccc(OCCCOC[C@H](O)CO)c(F)c1F)C(=O)C(C(=O)Nc1ccc(C(F)(F)F)cc1-c1ccc(C(F)(F)F)nc1)=C2O [Example 147, (4aR)-1-[[4-[3-[(2R)-2,3-Dihydroxypropoxy]propoxy]-2,3-difluorophenyl]methyl]-4-hydroxy-4a-methyl-2-oxo-N-[4-(trifluoromethyl)-2-[6-(trifluoromethyl)pyridin-3-yl]phenyl]-6,7-dihydro-5H-pyrrolo[1,2-b]pyridazine-3-carboxamide]
Rate of uptake inhibition (%) (1 µM) [1]: 57% | inhibition in vivo at 0.1 % in feed [2]: 35%

CN1N(Cc2ccc(OCCCCC(=O)O)c(F)c2F)C(=O)C(C(=O)Nc2ccc(C(F)(F)F)cc2-c2cc(C(F)(F)F)ncn2)=C(O)C12CCCC2 [Example 333, 5-[2,3-Difluoro-4-[[10-hydroxy-6-methyl-8-oxo-9-[[4-(trifluoromethyl)-2-[6-(trifluoromethyl)pyrimidin-4-yl]phenyl]carbamoyl]-6,7-diazaspiro[4.5]dec-9-en-7-yl]methyl]phenoxy]pentanoic acid]
Rate of uptake inhibition (%) (1 µM) [1]: 29% | inhibition in vivo at 0.1 % in feed [2]: 8%

C[C@]12CCCN1N(Cc1ccc(OCCCCCCOC[C@H](O)CO)c(F)c1F)C(=O)C(C(=O)Nc1cnc(C(F)(F)F)nc1-c1ccc(C(F)(F)F)nc1)=C2O [Example 156, (4aR)-1-[[4-[6-[(2R)-2,3-Dihydroxypropoxy]hexoxy]-2,3-difluorophenyl]methyl]-4-hydroxy-4a-methyl-2-oxo-N-[2-(trifluoromethyl)-4-[6-(trifluoromethyl)pyridin-3-yl]pyrimidin-5-yl]-6,7-dihydro-5H-pyrrolo[1,2-b]pyridazine-3-carboxamide]
Rate of uptake inhibition (%) (1 µM) [1]: 59% | inhibition in vivo at 0.1 % in feed [2]: 21%

CN1N(Cc2ccc(OCCN3CCOCC3)c(F)c2F)C(=O)C(C(=O)Nc2ccc(C(F)(F)F)cc2-c2cc(C(F)(F)F)ncn2)=C(O)C12CCC2 [Example 317, 6-[[2,3-Difluoro-4-(2-morpholin-4-ylethoxy)phenyl]methyl]-9-hydroxy-5-methyl-7-oxo-N-[4-(trifluoromethyl)-2-[6-(trifluoromethyl)pyrimidin-4-yl]phenyl]-5,6-diazaspiro[3.5]non-8-ene-8-carboxamide]
Rate of uptake inhibition (%) (1 µM) [1]: 57% | inhibition in vivo at 0.1 % in feed [2]: 22%

CN1[C@@H](C(C)(C)C)C(O)=C(C(=O)Nc2ccc(C(F)(F)F)cc2-c2cc(C(F)(F)F)ncn2)C(=O)N1Cc1ccc(OCCN2CCOCC2)c(F)c1F [Example 264, (3S)-3-tert-Butyl-1-[[2,3-difluoro-4-(2-morpholin-4-ylethoxy)phenyl]methyl]-4-hydroxy-2-methyl-6-oxo-N-[4-(trifluoromethyl)-2-[6-(trifluoromethyl)pyrimidin-4-yl]phenyl]-3H-pyridazine-5-carboxamide]
Rate of uptake inhibition (%) (1 µM) [1]: 48% | inhibition in vivo at 0.1 % in feed [2]: 15%

C[C@]12CCCN1N(Cc1ccc(CN3CCOCC3)c(F)c1F)C(=O)C(C(=O)Nc1ccc(C(F)(F)F)cc1-c1ccc(C(F)(F)F)nc1)=C2O.Cl [Example 164, (4aR)-1-[[2,3-Difluoro-4-(morpholin-4-ylmethyl)phenyl]methyl]-4-hydroxy-4a-methyl-2-oxo-N-[4-(trifluoromethyl)-2-[6-(trifluoromethyl)pyridin-3-yl]phenyl]-6,7-dihydro-5H-pyrrolo[1,2-b]pyridazine-3-carboxamide; hydrochloride]
Rate of uptake inhibition (%) (1 µM) [1]: 64% | inhibition in vivo at 0.1 % in feed [2]: 14%

Cc1c(C#N)ncnc1-c1cc(C(F)(F)F)ccc1NC(=O)C1=C(O)[C@H](C(C)(C)C)N(C)N(Cc2ccc(OCCN3CCOCC3)c(F)c2F)C1=O [Example 270, (3S)-3-tert-Butyl-N-[2-(6-cyano-5-methylpyrimidin-4-yl)-4-(trifluoromethyl)phenyl]-1-[[2,3-difluoro-4-(2-morpholin-4-ylethoxy)phenyl]methyl]-4-hydroxy-2-methyl-6-oxo-3H-pyridazine-5-carboxamide]
Rate of uptake inhibition (%) (1 µM) [1]: 75% | inhibition in vivo at 0.1 % in feed [2]: 20%

CN1[C@@H](C(C)(C)C)C(O)=C(C(=O)Nc2ccc(Cl)cc2-c2ccc(C(F)(F)F)nc2)C(=O)N1Cc1ccc(OCCN2CCOCC2)c(F)c1F [Example 267, (3S)-3-tert-Butyl-N-[4-chloro-2-[6-(trifluoromethyl)pyridin-3-yl]phenyl]-1-[[2,3-difluoro-4-(2-morpholin-4-ylethoxy)phenyl]methyl]-4-hydroxy-2-methyl-6-oxo-3H-pyridazine-5-carboxamide]
Rate of uptake inhibition (%) (1 µM) [1]: 71% | inhibition in vivo at 0.1 % in feed [2]: 18%

CSc1ccc(-c2cc(Cl)ccc2NC(=O)C2=C(O)[C@H](C(C)(C)C)N(C)N(Cc3ccc(OCCN4CCOCC4)c(F)c3F)C2=O)cn1 [Example 269, (3S)-3-tert-Butyl-N-[4-chloro-2-(6-methylsulfanylpyridin-3-yl)phenyl]-1-[[2,3-difluoro-4-(2-morpholin-4-ylethoxy)phenyl]methyl]-4-hydroxy-2-methyl-6-oxo-3H-pyridazine-5-carboxamide]
Rate of uptake inhibition (%) (1 µM) [1]: 80% | inhibition in vivo at 0.1 % in feed [2]: 15%

Cc1c(C#N)ncnc1-c1cc(C(F)(F)F)ccc1NC(=O)C1=C(O)[C@@]2(C)CCCN2N(Cc2ccc(OCCN3CCOCC3)c(F)c2F)C1=O [Example 22, (4aR)-N-[2-(6-Cyano-5-methylpyrimidin-4-yl)-4-(trifluoromethyl)phenyl]-1-[[2,3-ditluoro-4-(2-morpholin-4-ylethoxy)phenyl]methyl]-4-hydroxy-4a-methyl-2-oxo-6,7-dihydro-5H-pyrrolo[1,2-b]pyridazine-3-carboxamide]
Rate of uptake inhibition (%) (1 µM) [1]: 50%

CN1[C@@H](C(C)(C)C)C(O)=C(C(=O)Nc2cnc(C(F)(F)F)nc2-c2ccc(C(F)(F)F)nc2)C(=O)N1Cc1ccc(OCCN2CCOCC2)c(F)c1F [Example 273]
Rate of uptake inhibition (%) (1 µM) [1]: 41%

CSc1ncc(-c2cc(C(F)(F)F)ccc2NC(=O)C2=C(O)[C@@]3(C)CCCN3N(Cc3ccc(C#CCCCCC(=O)O)c(F)c3F)C2=O)cn1 [Example 118]
Rate of uptake inhibition (%) (1 µM) [1]: 81%

C[C@]12CCCN1N(Cc1cccc(F)c1F)C(=O)C(C(=O)Nc1ccc(Br)c(F)c1)=C2O [Example 28]
Rate of uptake inhibition (%) (1 µM) [1]: 72%

CN(C[C@H](O)[C@@H](O)[C@H](O)[C@H](O)CO)C(=O)CCOCCOCCOCCOc1ccc(CN2C(=O)C(C(=O)Nc3ccc(C(F)(F)F)cc3-c3cc(C(F)(F)F)ncn3)=C(O)C3(CCCC3)N2C)c(F)c1F [Example 423]
Rate of uptake inhibition (%) (1 µM) [1]: 5%

CN1N(Cc2cccc(F)c2F)C(=O)C(C(=O)Nc2ccc(C(F)(F)F)cc2-c2ccc(C(F)(F)F)nc2)=C(O)C12CCC2 [Example 301]
Rate of uptake inhibition (%) (1 µM) [1]: 79%

CN1N(Cc2cccc(F)c2F)C(=O)C(C(=O)Nc2ccc(Br)c(C(F)(F)F)n2)=C(O)C12CCCC2 [Example 263]
Rate of uptake inhibition (%) (1 µM) [1]: 66%

COCCN(C)CCOCCOCCOCCOc1ccc(CN2C(=O)C(C(=O)Nc3ccc(C(F)(F)F)cc3-c3cc(C(F)(F)F)ncn3)=C(O)C3(CCCC3)N2C)c(F)c1F [Example 431]
Rate of uptake inhibition (%) (1 µM) [1]: 26%

CC(C)[C@H]1C(O)=C(C(=O)Nc2cc(F)c(Br)c(F)c2)C(=O)N(Cc2cccc(F)c2F)N1C [Example 254]
Rate of uptake inhibition (%) (1 µM) [1]: 58%

CN1N(Cc2ccc(OCCCCOC[C@H](O)CO)c(F)c2F)C(=O)C(C(=O)Nc2ccc(C(F)(F)F)cc2-c2ccc(C(F)(F)F)nc2)=C(O)C12CCC2 [Example 384]
Rate of uptake inhibition (%) (1 µM) [1]: 39%

C[C@]12CCCN1N(Cc1cccc(C#N)c1)C(=O)C(C(=O)Nc1cc(F)c(Br)c(F)c1)=C2O [Example 220]
Rate of uptake inhibition (%) (1 µM) [1]: 96%

Cc1cc(NC(=O)C2=C(O)[C@H]3CCCN3N(Cc3cccc(F)c3)C2=O)c(C(F)(F)F)o1 [Example 2, (4aR)-1-[(3-Fluorophenyl)methyl]-4-hydroxy-N-[5-methyl-2-(trifluoromethyl)furan-3-yl]-2-oxo-4a,5,6,7-tetrahydropyrrolo[1,2-b]pyridazine-3-carboxamide]
Rate of uptake inhibition (%) (1 µM) [1]: 19%

CN1N(Cc2ccc(OCCN(CCO)CCO)c(F)c2F)C(=O)C(C(=O)Nc2ccc(C(F)(F)F)cc2-c2cc(C(F)(F)F)ncn2)=C(O)C12CCC2 [Example 351]
Rate of uptake inhibition (%) (1 µM) [1]: 22%
